# Laboratory results reported in US20160145258A1, “Inhibitor Crystalline Form and Preparation Method and Use Thereof” (Hangzhou Pushai Pharmaceutical Technology Co., LTD., priority 2013, published 2016).
# Entries after “also recorded” stand apart in the source; their conditions may differ.
# How the values were obtained:
# Assay type in all cases: physicochemical
# [1] = Competitive slurry of Form IX and Form I in mixed solvents of ethanol and water, solids characterized by XRPD; details: equal quantity (4 mg) of Form IX and Form I in 1 mL ethanol and water (1:1, 1:4, 1:5 and 1:10), room temperature, 7 days
# [2] = Competitive slurry 1 in nitromethane, solids characterized by XRPD; details: equal quantity (5 mg) of Form I, II, III, IV and VIII in nitromethane, room temperature, 7 days
# Excerpt: (§1) The slurry method described in the present invention refers to stirring of a supersaturated solution of the sample (with undissolved solids) in various solvent systems for crystallization. Usually, the duration is 14 days.
# [3] = Hygroscopicity by dynamic vapor sorption (DVS) isothermal sorption; details: for Weight change within 20%-80% RH range: DVS isothermal sorption, relative humidity 20%-80%; for Hygroscopicity in words (compared to Form I): from DVS weight change within 20-80% RH
# Method: Dynamic vapor sorption (DVS) data were collected using TA Instruments Q500 TGA. The instrument control software was Thermal Advantage, and the analytical software was Universal Analysis. Usually, 1-10 mg of the sample was placed in a platinum pan, and the weight change of the sample during studies was recorded. The relative humidity was usually programed to change from 50% to 80% to 0% and then back to 50%, and an isothermal sorption plot could be generated. Depending on specific situations, different sorption and desorption procedures might be used. Hygroscopicity comparison: DVS isothermal sorption curves were used, and weight changes within the 20%-80% RH range were measured.
# [4] = Competitive slurry 2 in mixed solvent of isopropanol and water, solids characterized by XRPD; details: equal quantity (5 mg) of Form VI and Form IX in 1 mL isopropanol and water (1:4, v/v), room temperature, 7 days
# Excerpt: as §1
SMILES,Competitive slurry: crystal form after slurry [1],Competitive slurry 1: crystal form after slurry [2],Weight change within 20%-80% RH range [3] [%],Hygroscopicity in words (compared to Form I) [3],Hygroscopicity in words (compared to Form I) ([3]; listed as Form. IX),Competitive slurry 2: crystal form after slurry [4]
"CC[C@H](Nc1ncnc2[nH]cnc12)c1nc2cccc(F)c2c(=O)n1-c1ccccc1 [Form I, 5-fluoro-3-phenyl-2-[(S)-1-(9H-purin-6-ylamino)-propyl]-3H-quinazoline-4-one, reference compound]",transformed into Form IX,transformed into Form III,0.95,–,–,–
"CC[C@H](Nc1ncnc2[nH]cnc12)c1nc2cccc(F)c2c(=O)n1-c1ccccc1 [Form II, 5-fluoro-3-phenyl-2-[(S)-1-(9H-purin-6-ylamino)-propyl]-3H-quinazoline-4-one]",–,transformed into Form III,0.46,less hygroscopic,–,–
"CC[C@H](Nc1ncnc2[nH]cnc12)c1nc2cccc(F)c2c(=O)n1-c1ccccc1 [Form III, 5-fluoro-3-phenyl-2-[(S)-1-(9H-purin-6-ylamino)-propyl]-3H-quinazoline-4-one]",–,thermodynamically the most stable form; also recorded: III remained unchanged,0.44,less hygroscopic,–,–
"CC[C@H](Nc1ncnc2[nH]cnc12)c1nc2cccc(F)c2c(=O)n1-c1ccccc1 [Form IV, 5-fluoro-3-phenyl-2-[(S)-1-(9H-purin-6-ylamino)-propyl]-3H-quinazoline-4-one]",–,transformed into Form III,0.27,less hygroscopic; also recorded: least hygroscopicity; also recorded: low hygroscopicity,–,–
"CC[C@H](Nc1ncnc2[nH]cnc12)c1nc2cccc(F)c2c(=O)n1-c1ccccc1 [Form IX, 5-fluoro-3-phenyl-2-[(S)-1-(9H-purin-6-ylamino)-propyl]-3H-quinazoline-4-one]","more stable; also recorded: remained unchanged; also recorded: unchanged, while Form I",–,0.3,less hygroscopic; also recorded: lower hygroscopicity; also recorded: least hygroscopicity,low hygroscopicity,"transformed into Form VI; also recorded: Form VI, while Form VI"
"CC[C@H](Nc1ncnc2[nH]cnc12)c1nc2cccc(F)c2c(=O)n1-c1ccccc1 [Form VI, 5-fluoro-3-phenyl-2-[(S)-1-(9H-purin-6-ylamino)-propyl]-3H-quinazoline-4-one]",–,–,0.57,lower hygroscopicity; also recorded: less hygroscopic,–,remained unchanged
"CC[C@H](Nc1ncnc2[nH]cnc12)c1nc2cccc(F)c2c(=O)n1-c1ccccc1 [Form VIII, 5-fluoro-3-phenyl-2-[(S)-1-(9H-purin-6-ylamino)-propyl]-3H-quinazoline-4-one]",–,transformed into Form III,0.84,less hygroscopic; also recorded: low hygroscopicity,–,–
